Consider 12 compounds from patent US20250270246A1, “LINCOSAMIDES AND USES THEREOF” (President and Fellows of Harvard College, priority 2022, published 2025).

For data set [1] the following is noted: rcm bond, Grubbs II (20 mol%)/benzoquinone, toluene.
Data set [2] concerns S. aureus ATCC 29213 (HAV#001). Description: MIC by broth microdilution (CLSI). The data set is classed as cell-based. Conditions: HAV#001, ATCC 29213, CaMHB, 24 h incubation; for MIC: Staphylococcus aureus, ATCC29213, 24 h, read-out: MIC S. aureus ATCC 29213. An outline of the steps:
(§1)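 Cation-adjusted Mueller-Hinton medium, Chelex 100 ion-exchange treated where P. aeruginosa was tested. Twofold series 64 down to 0.06 μg/mL, 2.5% DMSO final, 5×10^5 CFU/mL inoculum, 24 h incubation; endpoint is no visible growth.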

Another data set relates to E. coli HAV#038, ΔTolC. In words: MIC by broth microdilution (CLSI). Format: cell-based. Particulars: Escherichia coli, 24 h, read-out: MIC E. coli HAV#038, ΔTolC. The method, boiled down: as §1
(In general: Broth dilution looks for growth in wells or tubes with falling amounts of substance.)

The test system of data set [3] is E. faecalis ATCC 29212 (HAV#005). In words: MIC by broth microdilution (CLSI). Conditions: HAV#005, ATCC 29212, CaMHB, 24 h incubation; for MIC: Enterococcus faecalis, ATCC29212, 24 h, read-out: MIC E. faecalis ATCC 29212. The data set is classed as cell-based. The method, boiled down: as §1
Data set [4] has as its system A. baumannii ATCC 19606 (HAV#010). Description: MIC by broth microdilution (CLSI). Format: cell-based. Conditions: HAV#010, ATCC 19606, CaMHB, 24 h incubation; for MIC: Acinetobacter baumannii, ATCC19606, 24 h, read-out: MIC A. baumannii ATCC 19606. An outline of the steps: as §1
Data set [5] deals with K. pneumoniae HAV#402, FQ-R. In words: MIC by broth microdilution (CLSI). The data set is classed as cell-based. Particulars: Klebsiella pneumoniae; FQ-R; CaMHB, 24 h incubation; read-out: MIC K. pneumoniae HAV#402, FQ-R. An outline of the steps: as §1
The test system of another data set is S. aureus HAV#216, cfr. In words: MIC by broth microdilution (CLSI). The data set is classed as cell-based. Particulars: Staphylococcus aureus; cfr; CaMHB, 24 h incubation; read-out: MIC S. aureus HAV#216, cfr. An outline of the steps: as §1
The subject of data set [6] is E. coli ATCC 25922 (HAV#006). In words: MIC by broth microdilution (CLSI). Particulars: HAV#006, ATCC 25922, CaMHB, 24 h incubation; for MIC: Escherichia coli, ATCC25922, 24 h, read-out: MIC E. coli ATCC 25922. The data set is classed as cell-based. An outline of the steps: as §1
Data set [7] has as its system S. aureus HAV#031, c-ermA. Description: MIC by broth microdilution (CLSI). Format: cell-based. Particulars: Staphylococcus aureus; c-ermA; CaMHB, 24 h incubation; read-out: MIC S. aureus HAV#031, c-ermA. The method, boiled down: as §1
The next data set deals with E. coli HAV#040, LptD. In words: MIC by broth microdilution (CLSI). The data set is classed as cell-based. Conditions: Escherichia coli, 24 h, read-out: MIC E. coli HAV#040, LptD. An outline of the steps: as §1
The subject of the next data set is E. coli lptD mutant. In words: MIC by broth microdilution (CLSI). Particulars: CaMHB, 24 h incubation. The data set is classed as cell-based. The method, boiled down: as §1
The next data set deals with K. pneumoniae JMI-991193. In words: MIC by broth microdilution (CLSI). Format: cell-based. Particulars: JMI-991193, CaMHB, 24 h incubation. An outline of the steps:
as §1

The next data set has as its system E. coli ΔtolC. Description: MIC by broth microdilution (CLSI). The data set is classed as cell-based. Particulars: CaMHB, 24 h incubation. An outline of the steps:
as §1

A further data set has as its system S. aureus Clinical (cfr). Description: MIC by broth microdilution (CLSI). Format: cell-based. Conditions: Clinical (cfr), CaMHB, 24 h incubation. An outline of the steps: as §1
The next data set relates to E. faecium JMI-990536. Description: MIC by broth microdilution (CLSI). The data set is classed as cell-based. An outline of the steps: as §1
The next data set concerns S. aureus MMX 3035. In words: MIC by broth microdilution (CLSI). The data set is classed as cell-based. Particulars: MMX 3035, CaMHB, 24 h incubation. An outline of the steps: as §1
[8] abbreviates: from C=CCCCCS[C@H]1O[C@H]([C@H](N[S@](=O)C(C)(C)C)[C@H](C)C=C)[C@H](OC(C)=O)[C@H](OC(C)=O)[C@H]1OC(C)=O, 12-membered ring, 2.0 mM, 0.25 h.

Each structure is given as a SMILES string. Counter-ions that a name gives are not always drawn. Like-named read-outs stand apart in the source and are kept apart here. Where only a bound is given, the exact number is not on record here.

In turn, `CC(=O)O[C@@H]1[C@H](OC(C)=O)[C@@H](OC(C)=O)[C@@H]2O[C@@H]1[C@H](N[S@](=O)C(C)(C)C)C(C)/C=C/CCCCS2` (stereo partly shown) showed a ring closure, isolated yield in data set [1] (setting [8]) of 64.8%.

Consider `CC(=O)O[C@@H]1[C@H](OC(C)=O)[C@@H](OC(C)=O)[C@@H]2O[C@@H]1[C@H](N[S@](=O)C(C)(C)C)C(C)/C=C\CCCCS2` (stereo partly shown), for which the ring closure, isolated yield in data set [1] (setting [8]) was determined as 6.3%.

As for `CC(C)(C)[S@@](=O)N[C@@H]1C/C=C\CC(CO[Si](C)(C)C(C)(C)C)S[C@H]2O[C@H]1[C@H](OC(=O)c1ccccc1)[C@H](OC(=O)c1ccccc1)[C@H]2OC(=O)c1ccccc1` (stereo partly shown), in data set [1] (from C=CCC(CO[Si](C)(C)C(C)(C)C)S[C@H]1O[C@H]([C@@H](CC=C)N[S@](=O)C(C)(C)C)[C@H](OC(=O)c2ccccc2)[C@H](OC(=O)c2ccccc2)[C@H]1OC(=O)c1ccccc1, 10-membered ring, 1.0 mM, 0.25 h), the ring closure, isolated yield was 85%.

Take `C[C@@H]1/C=C\CCS[C@H]2O[C@H]([C@@H]1N[S@](=O)C(C)(C)C)[C@H](OC(=O)c1ccccc1)[C@H](OC(=O)c1ccccc1)[C@H]2OC(=O)c1ccccc1`: the ring closure, isolated yield in data set [1] (from C=CCCS[C@H]1O[C@H]([C@H](N[S@](=O)C(C)(C)C)[C@H](C)C=C)[C@H](OC(=O)c2ccccc2)[C@H](OC(=O)c2ccccc2)[C@H]1OC(=O)c1ccccc1, 10-membered ring, 0.2 mM, 0.33 h) was found to be 19%.

On to `C[C@@H]1/C=C\C[C@@H](CO[Si](C)(C)C(C)(C)C)S[C@H]2O[C@H]([C@@H]1N[S@](=O)C(C)(C)C)[C@H](OC(=O)c1ccccc1)[C@H](OC(=O)c1ccccc1)[C@H]2OC(=O)c1ccccc1`, for which, in data set [1] (from C=CCC(CO[Si](C)(C)C(C)(C)C)S[C@H]1O[C@H]([C@H](N[S@](=O)C(C)(C)C)C(C)C=C)[C@H](OC(=O)c2ccccc2)[C@H](OC(=O)c2ccccc2)[C@H]1OC(=O)c1ccccc1, 10-membered ring, 2.0 mM, 0.25 h), the ring closure, isolated yield was 85%.

The compound `C[C@H]1/C=C/CCS[C@H]2O[C@H]([C@@H]1N[S@](=O)C(C)(C)C)[C@H](OC(=O)c1ccccc1)[C@H](OC(=O)c1ccccc1)[C@H]2OC(=O)c1ccccc1` displayed a ring closure, isolated yield in data set [1] (from C=CCCS[C@H]1O[C@H]([C@H](N[S@](=O)C(C)(C)C)[C@@H](C)C=C)[C@H](OC(=O)c2ccccc2)[C@H](OC(=O)c2ccccc2)[C@H]1OC(=O)c1ccccc1, 10-membered ring, 0.2 mM, 0.33 h) of 6%.

Take `O=C(N[C@@H]1C/C=C\CCS[C@H]2O[C@H]1[C@H](O)[C@H](O)[C@H]2O)C(F)(F)F`: the ring closure, isolated yield in [1] (from C=CCCS[C@H]1O[C@H]([C@@H](CC=C)NC(=O)C(F)(F)F)[C@H](O)[C@H](O)[C@H]1O, 10-membered ring, 0.4 mM, 0.33 h) was determined as 39%.

In [1] (from C=CCCCS[C@H]1O[C@H]([C@H](N[S@](=O)C(C)(C)C)[C@H](C)C=C)[C@H](OC(C)=O)[C@H](OC(C)=O)[C@H]1OC(C)=O, 11-membered ring, 1.9 mM, 0.25 h), `CC(=O)O[C@@H]1[C@H](OC(C)=O)[C@@H](OC(C)=O)[C@@H]2O[C@@H]1[C@H](N[S@](=O)C(C)(C)C)C(C)/C=C/CCCS2` (mixture of isomers) gave a ring closure, isolated yield of 85%.

As for `CC(C)C[C@@H]1CCO[C@@H]2[C@H](CN[C@@H]2C(=O)N[C@@H]2CC(C)(C)/C=C/CS[C@H]3O[C@H]2[C@H](O)[C@H](O)[C@H]3O)C1` [FSA1503085, (4S,5aS,8S,8aR)-4-isobutyl-N-((1R,8R,9R,10R,11S,12R,E)-10,11,12-trihydroxy-6,6-dimethyl-13-oxa-2-thiabicyclo[7.3.1]tridec-4-en-8-yl) octahydro-2H-oxepino[2,3-c]pyrrole-8-carboxamide formate salt], the MIC in [2] is 0.25 µg/mL; with E. coli HAV#038, ΔTolC it was 4 µg/mL; in data set [3], 0.25 µg/mL; in data set [4], 64 µg/mL; in [5], > 64 µg/mL; in the data set on S. aureus HAV#216, cfr, 8 µg/mL. Moreover, the MIC came to 64 µg/mL in [6]; 32 µg/mL in data set [7]; 8 µg/mL in the data set on E. coli HAV#040, LptD.

Take `CC(C)C[C@@H]1CCO[C@@H]2[C@H](CN[C@@H]2C(=O)N[C@H]2[C@H]3O[C@H](SCCCCC2(C)C)[C@H](O)[C@@H](O)[C@H]3O)C1` [FSA1504068, (4S,5aS,8S,8aR)-4-isobutyl-N-((1R,8R,9R,10R,11S,12R)-10,11,12-trihydroxy-7,7-dimethyl-13-oxa-2-thiabicyclo[7.3.1]tridecan-8-yl) octahydro-2H-oxepino[2,3-c]pyrrole-8-carboxamide formate salt]: the MIC in data set [2] is 0.5 µg/mL; with E. coli HAV#038, ΔTolC it was 32 µg/mL; in data set [3], 2 µg/mL; in [4], > 64 µg/mL; in data set [5], > 64 µg/mL; with S. aureus HAV#216, cfr it was > 64 µg/mL. Further, the MIC in data set [6] is 64 µg/mL; in data set [7], > 64 µg/mL; with E. coli HAV#040, LptD it was 64 µg/mL.

`CC(C)C[C@@H]1CCO[C@@H]2[C@H](CN[C@@H]2C(=O)N[C@H]2[C@H]3O[C@H](SCCC/C=C/[C@H]2C)[C@H](O)[C@@H](O)[C@H]3O)C1` [FSA1609095, (4S,5aS,8S,8aR)-4-isobutyl-N-((1R,8R,9R,10R,11R,12S,13R,E)-11,12,13-trihydroxy-8-methyl-14-oxa-2-thiabicyclo[8.3.1]tetradec-6-en-9-yl) octahydro-2H-oxepino[2,3-c]pyrrole-8-carboxamide formate salt]: the “MIC S. aureus ATCC 29213” value in [2] (formate salt) was ≤0.06 µg/mL. Further, in the data set with E. coli lptD mutant (lptD mutant / ΔlptD mutant, formate salt), the “MIC E. coli lptD mutant” value amounted to 0.5 µg/mL. The “MIC E. faecalis ATCC 29212” value in data set [3] (formate salt) was determined as 0.125 µg/mL. Besides, the “MIC K. pneumoniae JMI-991193” value with K. pneumoniae JMI-991193 (formate salt) came to 16 µg/mL. The “MIC E. coli ΔtolC” value with E. coli ΔtolC (ΔtolC, formate salt) stood at 4 µg/mL. In data set [4] (formate salt), the “MIC A. baumannii ATCC 19606” value was determined as 4 µg/mL. Further, the “MIC S. aureus Clinical (cfr)” value with S. aureus Clinical (cfr) (formate salt) is 8 µg/mL. The “MIC E. faecium JMI-990536” value in the data set on E. faecium JMI-990536 (JMI-990536, CaMHB, 24 h incubation, formate salt) was 2 µg/mL. Further, in the data set with S. aureus MMX 3035 (formate salt), the “MIC S. aureus MMX 3035” value was determined as 2 µg/mL. In addition, in data set [6] (formate salt), the “MIC E. coli ATCC 25922” value worked out at 8 µg/mL.

Consider `CC(C)C[C@@H]1CCO[C@@H]2[C@H](CN[C@@H]2C(=O)N[C@H]2[C@H]3O[C@H](SCCC/C=C\[C@H]2C)[C@H](O)[C@@H](O)[C@H]3O)C1` [FSA1609096, (4S,5aS,8S,8aR)-4-isobutyl-N-((1R,8R,9R,10R,11R,12S,13R,Z)-11,12,13-trihydroxy-8-methyl-14-oxa-2-thiabicyclo[8.3.1]tetradec-6-en-9-yl) octahydro-2H-oxepino[2,3-c]pyrrole-8-carboxamide formate salt], for which the MIC was ≤ 0.06 µg/mL in [2]; 0.125 µg/mL in the data set with E. coli lptD mutant (Escherichia coli, 24 h, read-out: MIC E. coli lptD mutant, lptD mutant / ΔlptD mutant); ≤ 0.06 µg/mL in [3]; 8 µg/mL in the data set with K. pneumoniae JMI-991193 (Klebsiella pneumoniae, JMI991193, 24 h, read-out: MIC K. pneumoniae JMI-991193); 0.25 µg/mL in the data set with E. coli ΔtolC (Escherichia coli, 24 h, read-out: MIC E. coli ΔtolC, ΔtolC); 1 µg/mL in data set [4]. In addition, the MIC with S. aureus Clinical (cfr) (Staphylococcus aureus, 24 h, read-out: MIC S. aureus Clinical (cfr)) worked out at 0.25 µg/mL; with E. faecium JMI-990536 (Enterococcus faecium, JMI990536, 24 h, read-out: MIC E. faecium JMI-990536), 0.125 µg/mL; in the data set with S. aureus MMX 3035 (Staphylococcus aureus, MMX3035, 24 h, read-out: MIC S. aureus MMX 3035), 0.25 µg/mL; in [6], 2 µg/mL.
